In patent US12629364B2, “Methods of treating cancers overexpressing CARM1 with EZH2 inhibitors and platinum-based antineoplastic drugs” (The Wistar Institute of Anatomy and Biology, priority 2016, dated 2026):
Entries after “also recorded” stand apart in the source; their conditions may differ.

Key:
[1] = system: tumors formed by CARM1 knockout cells; assay: IHC and qRT-PCR of dissected CARM1 knockout tumors; assay type: in vivo, NSG mice
Method: FIGS. 82 to 84 illustrate immunohistochemical analysis for serial sections of tumors dissected from mice injected with CARM1 knockout A1847 cells. Serial sections of tumors dissected from the indicated treatment groups described in FIGS. 73 to 75 were subjected to immunohistochemical staining for H3K27Me3, E7H2, cleaved caspase 3, and Ki67 (FIG. 82). Scale bar=50 μm. Histological score (H-score) of the indicated proteins was calculated for 3 separate fields from 5 tumors from 5 individual mice from each of the indicated groups (FIG. 83). Expression of the indicated EZH2/BAF155 target genes was determined by qRT-PCR in the tumors dissected from the indicated treatment groups (FIG. 84).

[2] = clinical trials for hematopoietic malignancies; cited from earlier work
[3] = biological target: T1, EZH2 (Homo sapiens, UniProt Q15910); assay: H3K27Me3 / EZH2 immunoblot in A1847 cells; assay type: cell-based; conditions: 72 hours, read-out: inhibition of the enzymatic activity of EZH2 as indicated by decrease in H3K27Me3 levels
T1 construct: endogenous in cells; host or cells: A1847 human epithelial ovarian cancer cells
T1 sequence (Q15910 whole entry): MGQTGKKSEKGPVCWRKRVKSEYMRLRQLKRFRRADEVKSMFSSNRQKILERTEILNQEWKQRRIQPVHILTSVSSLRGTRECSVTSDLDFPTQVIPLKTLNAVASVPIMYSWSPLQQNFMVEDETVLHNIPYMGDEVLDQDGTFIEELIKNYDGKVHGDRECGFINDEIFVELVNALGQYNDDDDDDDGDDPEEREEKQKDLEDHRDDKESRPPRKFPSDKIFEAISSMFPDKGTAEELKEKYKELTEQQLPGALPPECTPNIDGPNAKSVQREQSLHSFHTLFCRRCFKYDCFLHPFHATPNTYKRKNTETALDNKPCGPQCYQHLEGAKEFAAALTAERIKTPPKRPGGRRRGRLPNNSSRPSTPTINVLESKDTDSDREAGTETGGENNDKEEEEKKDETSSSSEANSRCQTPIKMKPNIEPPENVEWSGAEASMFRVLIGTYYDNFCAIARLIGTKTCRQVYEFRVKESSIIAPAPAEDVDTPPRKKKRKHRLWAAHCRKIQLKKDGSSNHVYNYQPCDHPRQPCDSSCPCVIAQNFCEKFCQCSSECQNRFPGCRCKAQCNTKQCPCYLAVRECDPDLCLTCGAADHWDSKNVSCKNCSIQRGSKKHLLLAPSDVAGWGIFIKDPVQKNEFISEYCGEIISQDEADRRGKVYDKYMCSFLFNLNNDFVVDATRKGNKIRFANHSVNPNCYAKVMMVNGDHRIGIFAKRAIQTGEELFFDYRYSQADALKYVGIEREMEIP
T1 sequence (Q15022 whole entry partner): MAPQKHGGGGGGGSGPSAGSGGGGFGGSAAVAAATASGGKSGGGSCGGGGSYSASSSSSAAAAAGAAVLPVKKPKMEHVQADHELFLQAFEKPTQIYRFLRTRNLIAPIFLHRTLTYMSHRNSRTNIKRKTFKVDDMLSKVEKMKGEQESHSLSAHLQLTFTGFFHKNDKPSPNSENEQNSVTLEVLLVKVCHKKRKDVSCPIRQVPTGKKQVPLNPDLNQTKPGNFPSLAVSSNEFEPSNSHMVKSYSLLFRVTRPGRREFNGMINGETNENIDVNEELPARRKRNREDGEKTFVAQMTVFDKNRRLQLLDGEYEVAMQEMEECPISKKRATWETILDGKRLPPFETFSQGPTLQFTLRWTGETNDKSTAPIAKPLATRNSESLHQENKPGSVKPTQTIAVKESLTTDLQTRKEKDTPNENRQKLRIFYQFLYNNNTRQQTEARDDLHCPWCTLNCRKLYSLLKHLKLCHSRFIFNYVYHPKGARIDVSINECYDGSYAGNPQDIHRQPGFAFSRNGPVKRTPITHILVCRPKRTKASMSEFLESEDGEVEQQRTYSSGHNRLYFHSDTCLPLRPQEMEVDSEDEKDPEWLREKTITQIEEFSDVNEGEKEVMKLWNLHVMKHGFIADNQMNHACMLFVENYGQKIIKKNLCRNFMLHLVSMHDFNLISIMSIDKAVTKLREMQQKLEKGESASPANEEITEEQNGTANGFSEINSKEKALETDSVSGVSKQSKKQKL
T1 sequence (O75530 whole entry partner): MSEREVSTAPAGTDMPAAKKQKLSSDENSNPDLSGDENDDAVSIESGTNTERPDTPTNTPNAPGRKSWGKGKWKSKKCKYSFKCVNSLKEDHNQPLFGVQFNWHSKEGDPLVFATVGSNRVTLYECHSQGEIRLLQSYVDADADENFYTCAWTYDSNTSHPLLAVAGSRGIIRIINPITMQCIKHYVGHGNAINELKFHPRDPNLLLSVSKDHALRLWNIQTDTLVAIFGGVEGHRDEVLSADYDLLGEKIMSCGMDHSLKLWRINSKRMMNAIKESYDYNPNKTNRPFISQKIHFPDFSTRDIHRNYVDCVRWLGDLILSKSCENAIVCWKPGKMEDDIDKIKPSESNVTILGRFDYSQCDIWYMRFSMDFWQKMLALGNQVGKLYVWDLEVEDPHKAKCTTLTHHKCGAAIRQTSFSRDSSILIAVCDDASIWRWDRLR
Method: FIG. 32 illustrates that the EZH2 inhibitor GSK 126 decreases H3K27Me3 levels in a dose-dependent manner. A1847 cells were treated with the indicated concentrations of GSK126 for 72 hours and examined for expression of the indicated proteins by immunoblot. Expression of histone H3 and β-actin was used as a loading control.
Small molecules used in the epigenetic screen were obtained from Structural Genomics Consortium or The Wistar Institute Molecular Screening Facility. GSK126 was obtained from Active Biochem or Xcess Biosciences. Antibodies were obtained from: mouse anti-CARM1 (Cell Signaling, Cat. No: 12495, 1:1000 for immunoblotting), goat anti-BAF155 (Santa Cruz, Cat. No: SC9746, 1:1000 for immunoblotting), rabbit anti-methylated R1064 BAF155 (Millipore, Cat. No: ABE1339, 1:1000 for immunoblotting), rabbit anti-EZH2 (Cell Signaling, Cat. No: 5246, 1:1000 for immunoblotting), rabbit anti-cleaved PARP p85 (Promega, Cat. No: G7341, 1:1000 for immunoblotting), mouse anti-Ki67 (Cell Signaling, Cat. No: 9449, 1:500 for IHC), rabbit anti-cleaved caspase 3 (Cell Signaling, Cat. No: 9661, 1:1000 for immunoblotting and 1:50 for IHC), rabbit anti-H3K27Me3 (Cell Signaling, Cat. No: 9733, 1:1000 for immunoblotting and 1:100 for IHC), mouse anti-β-actin (Sigma, Cat. No: A1978, 1:20,000 for immunoblotting), rabbit anti-RNA pol II (Santa Cruz, Cat. No: sc-899). […]

CC[C@H](C)n1cc(C)c2c(C(=O)NCc3c(C)cc(C)[nH]c3=O)cc(-c3ccc(N4CCNCC4)nc3)cc21 [GSK126, (S)-1-(sec-butyl)-N-((4,6-dimethyl-2-oxo-1,2-dihydropyridin-3-yl)methyl)-3-methyl-6-(6-(piperazin-1-yl)pyridin-3-yl)-1H-indole-4-carboxamide]
expression of Ki67 ([1]; IHC): did not affect the expression of Ki67 and cleaved caspase 3 | expression of cleaved caspase 3 ([1]; IHC): did not affect the expression of Ki67 and cleaved caspase 3 | expression of EZH2/BAF155 target genes ([1]; qRT-PCR): did not increase the expression | tolerability in clinical trials [2]: used safely in clinical trials; also recorded: well-tolerated with limited toxicity | inhibition at 10 µM [3]: > 95%
